Results reported in patent US20260256925A1, “INDAZOLE DERIVATIVES AS ESTROGEN RECEPTOR DEGRADERS” (REGENTS OF THE UNIVERSITY OF MICHIGAN, priority 2022, published 2026).

Key:
CRBN/DDB1 = target: T1, CRBN/DDB1 (Homo sapiens, UniProt Q96SW2); assay type: binding; details: HTRF, Cy5-labeled Thalidomide probe
T1 construct: purchased Wuxi RP210521GA
Protocol: The binding potency was determined using HTRF assay technology (Perkin Elmer). Compounds were serially diluted in DMSO and 0.2 μL volume was transferred to white 384-well plate.

[1] = Cell growth assay, WST-8 (compounds B1-B126); assay type: cell-based; details: 96 h; T47D cell line, WST-8, 4 days; read-out: Cell growth inhibition in T47D cell line IC50
In short: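 Read-out is WST-8 absorbance at 450 nm (2.5 h, 37° C) as a fraction of vehicle control, from three separate repeats. Compound exposure lasted 4 days, starting one day after plating 1500 cells/well.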

ER [2] = target: T2, ER (Homo sapiens, UniProt P03372); test: Western blot analysis (compounds B1-B126); assay type: cell-based; details: ER degradation, read-out: Traditional Western Degradation potency (DC50)
T2 construct: endogenous in cells; probably T47D or MCF-7
T2 sequence (P03372 1-595): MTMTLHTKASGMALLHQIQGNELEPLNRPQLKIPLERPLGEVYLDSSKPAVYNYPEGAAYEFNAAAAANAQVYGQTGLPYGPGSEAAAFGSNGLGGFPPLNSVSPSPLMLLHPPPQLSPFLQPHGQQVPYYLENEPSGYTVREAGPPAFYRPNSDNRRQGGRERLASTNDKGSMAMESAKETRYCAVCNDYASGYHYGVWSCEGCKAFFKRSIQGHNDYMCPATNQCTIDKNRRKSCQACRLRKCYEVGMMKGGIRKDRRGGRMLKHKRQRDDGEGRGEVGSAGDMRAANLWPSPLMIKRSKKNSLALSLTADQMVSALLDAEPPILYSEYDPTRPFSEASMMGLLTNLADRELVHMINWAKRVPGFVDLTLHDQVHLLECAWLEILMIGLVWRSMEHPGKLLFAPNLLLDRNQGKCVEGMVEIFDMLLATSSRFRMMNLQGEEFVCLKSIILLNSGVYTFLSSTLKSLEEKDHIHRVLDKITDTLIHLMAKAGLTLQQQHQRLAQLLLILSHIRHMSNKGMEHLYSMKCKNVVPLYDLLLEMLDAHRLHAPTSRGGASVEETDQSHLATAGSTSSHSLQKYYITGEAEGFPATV
Protocol: Western Blot Analysis. The cells that are treated with the compounds are lysed in Radioimmunoprecipitation Assay Protein Lysis and Extraction Buffer (e.g., 25 mmol/L Tris.HCl, pH 7.6, 150 mmol/L NaCl, 1% Nonidet P-40, 1% sodium deoxycholate, and 0.1% sodium dodecyl sulfate) containing proteinase inhibitor cocktail. Equal amounts of total protein are electrophoresed through 10% SDS-polyacrylamide gels after determination of protein concentration by BCA assay. The separated protein bands are transferred onto PVDF membranes and blotted against different antibodies. The blots are scanned, and the band intensities are quantified (e.g., by using GelQuant.NET software provided by biochemlabsolutions.com). The relative mean intensity of target proteins is expressed after normalization to the intensity of glyceraldehyde-3-phosphate dehydrogenase bands.
Western Blot Analysis. Western blot analysis was performed essentially as described previously. The cells treated with indicated compounds were lysed in Radioimmunoprecipitation Assay Protein Lysis and Extraction Buffer (25 mmol/L Tris.HCl, pH 7.6, 150 mmol/L NaCl, 1% Nonidet P-40, 1% sodium deoxycholate, and 0.1% sodium dodecyl sulfate) containing proteinase inhibitor cocktail (Roche Diagnostics, Mannheim, Germany). Equal amounts of total protein were electrophoresed through 10% SDS-polyacrylamide gels after determination of protein concentration by BCA assay (Fisher Scientific, Pittsburgh, PA). The separated protein bands were transferred onto PVDF membranes (GE Healthcare Life Sciences, Marlborough, MA) and blotted against different antibodies, as indicated. The blots were scanned, and the band intensities were quantified using GelQuant.NET software provided by biochemlabsolutions.com. The relative mean intensity of target proteins was expressed after normalization to the intensity of glyceraldehyde-3-phosphate dehydrogenase bands.

ER [3] = target: T2, ER; test: In-cell western blot analysis, relative ER percentage (compounds B1-B126); assay type: cell-based; details: ER degradation, 16 hours, read-out: ICW DC50
In short: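 Readout was a two-colour infrared in-cell western of formaldehyde-fixed cells after 16 h compound exposure at 0.5% DMSO, with 40,000 or 10,000 cells/well plated the previous night. Relative ER percentage compares treated wells against untreated/DMSO-treated wells taken as 100%.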

T1 sequence (Q96SW2 whole entry): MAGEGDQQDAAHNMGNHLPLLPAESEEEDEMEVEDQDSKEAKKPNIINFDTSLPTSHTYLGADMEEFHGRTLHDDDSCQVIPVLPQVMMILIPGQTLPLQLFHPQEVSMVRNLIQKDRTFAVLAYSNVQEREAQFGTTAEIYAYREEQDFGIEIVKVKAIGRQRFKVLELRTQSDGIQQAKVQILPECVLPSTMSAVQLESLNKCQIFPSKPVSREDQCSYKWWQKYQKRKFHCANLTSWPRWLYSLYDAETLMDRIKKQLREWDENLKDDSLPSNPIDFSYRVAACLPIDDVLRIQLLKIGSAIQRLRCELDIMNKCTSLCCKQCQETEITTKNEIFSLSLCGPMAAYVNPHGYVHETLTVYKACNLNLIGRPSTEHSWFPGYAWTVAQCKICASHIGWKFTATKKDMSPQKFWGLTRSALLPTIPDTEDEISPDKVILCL
T1 sequence (Q16531 whole entry partner): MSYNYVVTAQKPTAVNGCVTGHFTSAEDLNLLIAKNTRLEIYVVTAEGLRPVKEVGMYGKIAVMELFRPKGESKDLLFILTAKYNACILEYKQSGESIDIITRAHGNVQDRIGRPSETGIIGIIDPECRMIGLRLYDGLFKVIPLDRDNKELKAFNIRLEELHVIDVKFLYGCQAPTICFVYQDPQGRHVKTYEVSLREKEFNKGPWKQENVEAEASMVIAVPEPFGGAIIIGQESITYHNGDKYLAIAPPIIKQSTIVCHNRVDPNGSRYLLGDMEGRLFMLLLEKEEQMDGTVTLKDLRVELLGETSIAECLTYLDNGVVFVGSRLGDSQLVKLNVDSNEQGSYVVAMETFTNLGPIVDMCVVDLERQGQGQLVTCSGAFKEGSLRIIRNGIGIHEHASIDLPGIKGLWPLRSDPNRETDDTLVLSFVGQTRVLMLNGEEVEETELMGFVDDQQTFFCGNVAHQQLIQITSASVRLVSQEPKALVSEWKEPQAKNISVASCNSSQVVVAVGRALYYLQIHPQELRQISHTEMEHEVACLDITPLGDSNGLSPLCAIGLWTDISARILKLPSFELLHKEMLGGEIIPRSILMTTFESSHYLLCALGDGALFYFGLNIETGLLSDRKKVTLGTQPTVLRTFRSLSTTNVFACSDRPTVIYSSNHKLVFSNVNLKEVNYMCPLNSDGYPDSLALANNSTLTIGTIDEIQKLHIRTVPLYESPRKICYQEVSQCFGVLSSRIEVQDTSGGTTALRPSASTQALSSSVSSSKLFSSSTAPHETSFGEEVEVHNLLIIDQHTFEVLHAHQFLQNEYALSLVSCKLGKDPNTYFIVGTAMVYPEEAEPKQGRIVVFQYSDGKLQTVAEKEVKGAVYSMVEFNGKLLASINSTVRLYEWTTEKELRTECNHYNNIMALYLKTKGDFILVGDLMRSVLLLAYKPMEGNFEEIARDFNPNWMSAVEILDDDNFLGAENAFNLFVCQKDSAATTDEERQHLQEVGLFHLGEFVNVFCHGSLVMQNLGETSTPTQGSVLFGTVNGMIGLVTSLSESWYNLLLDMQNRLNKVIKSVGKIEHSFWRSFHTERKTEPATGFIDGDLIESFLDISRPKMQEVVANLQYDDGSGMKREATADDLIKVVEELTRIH

Molecule | IC50 (CRBN/DDB1) [nM] | IC50 [1] [nM] | DC50 (ER [2]) [nM] | DC50 (ER [3]) [nM]
C[C@@H]1Cc2c(ccc3[nH]ncc23)[C@@H](c2c(F)cc(N3CCC4(CCN(C(=O)CN5Cc6cc(F)c(C(=O)N[C@H]7CCC(=O)NC7=O)cc6C5)CC4)CC3)cc2F)N1CC(F)F [Compound A1, 2-(2-(9-(4-((6S,8R)-7-(2,2-difluoroethyl)-8-methyl-6,7,8,9-tetrahydro-3H-pyrazolo[4,3-f]isoquinolin-6-yl)-3,5-difluorophenyl)-3,9-diazaspiro[5.5]undecan-3-yl)-2-oxoethyl)-N-((S)-2,6-dioxopiperidin-3-yl)-6-fluoroisoindoline-5-carboxamide] | > 5000 |  |  | 
C[C@@H]1Cc2c(ccc3[nH]ncc23)[C@@H](c2c(F)cc(N3CCC(CN4CCN5c6cc7c(cc6OC[C@@H]5C4)C(=O)N(C4CCC(=O)NC4=O)C7)CC3)cc2F)N1CC(F)F (stereo partly drawn) [Compound B16] |  | < 1 | 10 to 100 | 
C[C@@H]1Cc2c(ccc3[nH]ncc23)[C@@H](c2c(F)cc(NC3CN(C(=O)[C@H]4CC[C@@H](N5Cc6cc7c(cc6C5)C(=O)N(C5CCC(=O)NC5=O)C7=O)CC4)C3)cc2F)N1CC(F)F (stereo partly drawn) [Compound B25, 6-((1R,4s)-4-(3-((4-((6S,8R)-7-(2,2-difluoroethyl)-8-methyl-6,7,8,9-tetrahydro-3H-pyrazolo[4,3-f]isoquinolin-6-yl)-3,5-difluorophenyl)amino)azetidine-1-carbonyl)cyclohexyl)-2-(2,6-dioxopiperidin-3-yl)-6,7-dihydropyrrolo[3,4-f]isoindole-1,3(2H,5H)-dione] |  | 1 to 10 | < 10 | 
6-((1R,4s)-4-(4-(4-((6S,8R)-7-(2,2- difluoroethyl)-8-methyl-6,7,8,9- tetrahydro-3H-pyrazolo[4,3- f]isoquinolin-6-yl)-3,5- difluorophenyl)piperidine-1- carbonyl)cyclohexyl)-2-(2,6- dioxopiperidin-3-yl)-6,7- dihydropyrrolo[3,4-f]isoindole- 1,3(2H,5H)-dione [Compound B9] |  |  | < 10 | < 10
C[C@@H]1Cc2c(ccc3[nH]ncc23)[C@@H](c2c(F)cc(N3CCC(CN4CCN(c5ccc6c(c5)CN(C5CCC(=O)NC5=O)C6=O)CC4)CC3)cc2F)N1CC(F)F (stereo partly drawn) [Compound B67, 3-(5-(4-((1-(4-((6S,8R)-7-(2,2-difluoroethyl)-8-methyl-6,7,8,9-tetrahydro-3H-pyrazolo[4,3-f]isoquinolin-6-yl)-3,5-difluorophenyl)piperidin-4-yl)methyl)piperazin-1-yl)-1-oxoisoindolin-2-yl)piperidine-2,6-dione] |  | < 1 | < 10 | < 10
C[C@@H]1Cc2c(ccc3[nH]ncc23)[C@@H](c2ccc(N3CCC4(CC3)CN(C(=O)CN3Cc5cc6c(cc5C3)C(=O)N(C3CCC(=O)NC3=O)C6=O)CCO4)cn2)N1CC(F)(F)F (stereo partly drawn) [Compound B111] |  | 1 to 10 | 10 to 100 | 
C[C@@H]1Cc2c(ccc3[nH]ncc23)[C@@H](c2c(F)cc(NC3CN(C(=O)[C@H]4CC[C@H](N5Cc6cc7c(cc6C5)C(=O)N(C5CCC(=O)NC5=O)C7=O)CC4)C3)cc2F)N1CC(F)F (stereo partly drawn) [Compound B24, 6-((1S,4r)-4-(3-((4-((6S,8R)-7-(2,2-difluoroethyl)-8-methyl-6,7,8,9-tetrahydro-3H-pyrazolo[4,3-f]isoquinolin-6-yl)-3,5-difluorophenyl)amino)azetidine-1-carbonyl)cyclohexyl)-2-(2,6-dioxopiperidin-3-yl)-6,7-dihydropyrrolo[3,4-f]isoindole-1,3(2H,5H)-dione] |  | 1 to 10 | 10 to 100 | 
C[C@@H]1Cc2c(ccc3[nH]ncc23)[C@@H](c2c(F)cc(N3CCC(CN4CCN5c6ccc7c(c6OCC5C4)CN(C4CCC(=O)NC4=O)C7=O)CC3)cc2F)N1CC(F)F (mixture of isomers) [Compound B104, 3-((RS)-7-((1-(4-((6S,8R)-7-(2,2-difluoroethyl)-8-methyl-6,7,8,9-tetrahydro-3H-pyrazolo[4,3-f]isoquinolin-6-yl)-3,5-difluorophenyl)piperidin-4-yl)methyl)-1-oxo-1,3,5,5a,6,7,8,9-octahydro-2H-pyrazino[1′,2′:4,5][1,4]oxazino[2,3-e]isoindol-2-yl)piperidine-2,6-dione] |  |  | 10 to 100 | 10 to 100
C[C@@H]1Cc2c(ccc3[nH]ncc23)[C@@H](c2c(F)cc(N3CCC(C(=O)N4C5CCC4CC(N4Cc6cc7c(cc6C4)C(=O)N(C4CCC(=O)NC4=O)C7=O)C5)CC3)cc2F)N1CC(F)F (stereo partly drawn) [Compound B103, 6-(8-(1-(4-((6S,8R)-7-(2,2-difluoroethyl)-8-methyl-6,7,8,9-tetrahydro-3H-pyrazolo[4,3-f]isoquinolin-6-yl)-3,5-difluorophenyl)piperidine-4-carbonyl)-8-azabicyclo [3.2.1]octan-3-yl)-2-(2,6-dioxopiperidin-3-yl)-6,7-dihydropyrrolo [3,4-f]isoindole-1,3(2H,5H)-dione] |  |  | > 100 | 
C[C@@H]1Cc2c(ccc3[nH]ncc23)[C@@H](c2c(F)cc(N3CCC(CN4CCN(c5cc6c(cc5F)C(=O)N(C5CCC(=O)NC5=O)C6=O)CC4)CC3)cc2F)N1CC(F)F (stereo partly drawn) [Compound B66, 5-(4-((1-(4-((6S,8R)-7-(2,2-difluoroethyl)-8-methyl-6,7,8,9-tetrahydro-3H-pyrazolo[4,3-f]isoquinolin-6-yl)-3,5-difluorophenyl)piperidin-4-yl)mcthyl)pipcrazin-1-yl)-2-(2,6-dioxopiperidin-3-yl)-6-fluoroisoindoline-1,3-dione] |  |  | 10 to 100 | 
